Results as given in patent publication US6420406B1, “Triazolyl disulphides” (Bayer Aktiengesellschaft, priority 1996, dated 2002).

Key:
Assay type in all cases: in vivo
[1] = test system: Sphaerotheca fuliginea; test: Sphaerotheca test (cucumber)/protective; settings: protective, application rate 50 g/ha, evaluation 10 days after inoculation, 100% = no infection
Method: (§1) Sphaerotheca test (cucumber/protective Solvent: 47 parts by weight of acetone Emulsifier: 3 parts by weight of alkylaryl polyglycol ether To produce a suitable preparation of active compound, 1 part by weight of active compound is mixed with the stated amounts of solvent and emulsifier, and the concentrate is diluted with water to the desired concentration. To test for protective activity, young plants are sprayed with the preparation of active compound at the stated application rate. After the spray coating has dried on, the plants are inoculated with an aqueous spore suspension of Sphaerotheca fuliginea. The plants are subsequently placed in a greenhouse at 23 to 24° C. and at a relative atmospheric humidity of approximately 75%.

[2] = test system: Podosphaera leucotricha; test: Podosphaera test (apple)/protective; settings: protective, application rate 50 g/ha, evaluation 10 days after inoculation, 100% = no infection
Method: as §1, with “Podosphaera” for “Sphaerotheca”, “(apple)/protective” for “(cucumber/protective”, “product” for “produce”, “the causative organism of apple mildew Podosphaera leucotricha.” for “Sphaerotheca fuliginea.”, “then” for “subsequently”, “23°” for “23 to 24°”

[3] = test system: Erysiphe graminis f.sp. hordei; test: Erysiphe test (barley)/curative; settings: curative, sprayed 48 hours after inoculation, application rate 250 g/ha, evaluation 7 days after inoculation, 100% = no infection
Method: Erysiphe Test (barley)/curative Solvent: 10 parts by weight of N-methyl-pyrrolidone Emulsifier: 0.6 parts by weight of alkylaryl polyglycol ether To product a suitable preparation of active compound 1 part by weight of active compound is mixed with the stated amounts of solvent and emulsifier, and the concentrate is diluted with water to the desired concentration. To test for curative activity, young plants are dusted with spores of Erysiphe graminis f.sp. hordei. 48 hours after the incubation, the plants are sprayed with the preparation of active compound at the stated application rate. The plants are placed in a greenhouse at a temperature of approximately 20° C. and a relative atmospheric humidity of approximately 80%, in order to promote the development of mildew pustules.

[4] = test system: Erysiphe graminis f.sp. hordei; test: Erysiphe test (barley)/protective; settings: protective, application rate 250 g/ha, evaluation 7 days after inoculation, 100% = no infection
Method: (§2) Erysiphe test (barley)/protective Solvent: 10 parts by weight of N-methyl-pyrrolidone Emulsifier: 0.6 parts by weight of alkylaryl polyglycol ether To prepare a suitable preparation of active compound, 1 part by weight of active compound if mixed with the stated amounts of solvent and emulsifier, and the concentrate is diluted with water to the desired concentration. To test for protective activity, young plants are sprayed with the preparation of active compound at the stated application rate. After the spray coating has dried on, the plants are dusted with spores of Erysiphe graminis f.sp. hordei. The plants are placed in a greenhouse at a temperature of approximately 20° C. and a relative atmospheric humidity of approximately 80%, in order to promote the development of mildew pustules.

[5] = test system: Erysiphe graminis f.sp. tritci; test: Erysiphe test (wheat)/protective; settings: protective, application rate 250 g/ha, evaluation 7 days after inoculation, 100% = no infection
Method: as §2, with “test (wheat)/protective” for “test (barley)/protective”, “compound is” for “compound if”, “graminis […].” for “graminis f.sp. hordei.”

[6] = test system: Fusarium graminearum; settings: barley, protective, application rate 250 g/ha, evaluation 4 days after inoculation; 100% = no infection
[7] = test system: W strain of Pseudocercosporella herpotrichoides; test: Pseudocercosporella herpotrichoides test; W strain (wheat)/protective; settings: protective, application rate 250 g/ha, evaluation 21 days after inoculation, 100% = no infection
Method: Pseudocercosporella herpotrichoides test; W strain (wheat/protective Solvent: 10 parts by weight of N-methyl-pyrrolidone Emulsifier: 0.6 part by weight of alkylaryl polyglycol ether To product a suitable preparation of active compound, 1 part by weight of active compound is mixed with the stated amounts of solvent and emulsifier, and the concentrate is diluted with water to the desired concentration. To test for protective activity, young plants are sprayed with the preparation of active compound at the stated application rate. After the spray coating has dried on, the plants are inoculated at the base of the stem with spores of the W strain of Pseudocercosporella herpotrichoides. The plants are placed in a greenhouse at a temperature of approximately 10° C. and a relative atmospheric humidity of approximately 80%.

[8] = test system: Puccinia recondita; test: Puccinia test (wheat)/curative; settings: curative, sprayed 48 hours after inoculation, application rate 250 g/ha, evaluation 10 days after inoculation, 100% = no infection
Method: Puccinia test (wheat/curative Solvent: 10 parts by weight of N-methyl-pyrrolidone Emulsifier: 0.6 part by weight of alkylaryl polyglycol ether To product a suitable preparation of active compound, 1 part by weight of active compound is mixed with the stated amounts of solvent and emulsifier, and the concentrate is diluted with water to the desired concentration. […] 48 hours after the inoculation the plants are sprayed with the preparation of active compound at the stated application rate. The plants are placed in a greenhouse at a temperature of approximately 20° C. and a relative atmospheric humidity of approximately 80%, in order to promote the development of rust pustules.

[9] = test system: Venturia inaequalis; test: Venturia test (apple)/protective; settings: protective, application rate 50 g/ha, evaluation 12 days after inoculation, 100% = no infection
Method: Venturia test (apple)/protective Solvent: 47 parts by weight of acetone Emulsifier: 3 parts by weight of alkylaryl polyglycol ether To produce a suitable preparation of active compound, 1 part by weight of active compound is mixed with the stated amounts of solvent and emulsifier, and the concentrate is diluted with water to the desired concentration. To test for protective activity, young plants are sprayed with the preparation of active compound at the stated application rate. After the spray coating has dried on, the plants are inoculated with an aqueous conidia suspension of the causative organism of apple scab Venturia inaequalis and then remain placed at 20° C. and a relative atmospheric humidity of approximately 70% for 1 day. The plants are then placed in a greenhouse at 20° C. and at a relative atmospheric humidity of approximately 70%.

Compound | Efficacy in % [1] [%] | Efficacy in % [2] [%] | Efficacy in % [3] [%] | Efficacy in % [4] [%] | Efficacy in % [5] [%] | Efficacy in % [6] [%] | Efficacy in % [7] [%] | Efficacy in % [8] [%] | Efficacy in % [9] [%]
Fc1ccc(C2(Cn3ncnc3SSc3ncnn3CC3(c4ccc(F)cc4)OC3c3ccccc3Cl)OC2c2ccccc2Cl)cc1 (centres unmarked) [Example I-2] | 92 | 96 |  |  |  |  |  |  | 
OC(Cc1ccccc1Cl)(Cn1ncnc1SSc1ncnn1CC(O)(Cc1ccccc1Cl)C1(Cl)CC1)C1(Cl)CC1 (centres unmarked) [Example I-1, di-{1-[2-(1-chlorocyclopropyl)-3-(2-chloro-phenyl)-2-hydroxy-propyl-1]-1,2,4-triazol-5-yl} disulphide] | 100 | 100 | 100 | 100 | 100 | 100 | 100 | 100 | 100
